Experimental data from the supplement of paper PMC11451515.

Test system: P12-Ichikawa
Experiment: cell viability relative to DMSO control; higher = less cytotoxic
Details: 48 h
Procedure, shortened: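 NOMO1, SEM and P12-Ichikawa leukemia cells spent at least four passages adapting to each medium before use. They were seeded at 500 cells/well (NOMO1, SEM) or 1000 cells/well (P12-Ichikawa) in 5 μl in 1536-well plates and pin-dosed with library compounds in DMSO at 11 threefold steps from 47 μM down to 0.79 nM. After 48 h at 37°C, CellTiter-Glo One luminescence was read. Viability is reported as a percentage of the DMSO wells on each plate, with cell-free wells as background.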

[1] = HPLM + 10% dialyzed FBS, 0.000781 µM
[2] = HPLM + 10% dialyzed FBS, 0.00234 µM
[3] = HPLM + 10% dialyzed FBS, 0.00702 µM
[4] = HPLM + 10% dialyzed FBS, 0.0211 µM
[5] = HPLM + 10% dialyzed FBS, 0.0632 µM
[6] = HPLM + 10% dialyzed FBS, 0.19 µM
[7] = HPLM + 10% dialyzed FBS, 0.569 µM
[8] = HPLM + 10% dialyzed FBS, 1.71 µM
[9] = HPLM + 10% dialyzed FBS, 5.12 µM
[10] = HPLM + 10% dialyzed FBS, 15.4 µM
[11] = HPLM + 10% dialyzed FBS, 46.1 µM
[12] = RPMI 5 mM glucose + 10% FBS, 0.000781 µM
[13] = RPMI 5 mM glucose + 10% FBS, 0.00234 µM
[14] = RPMI 5 mM glucose + 10% FBS, 0.00702 µM
[15] = RPMI 5 mM glucose + 10% FBS, 0.0211 µM
[16] = RPMI 5 mM glucose + 10% FBS, 0.0632 µM
[17] = RPMI 5 mM glucose + 10% FBS, 0.19 µM
[18] = RPMI 5 mM glucose + 10% FBS, 0.569 µM
[19] = RPMI 5 mM glucose + 10% FBS, 1.71 µM
[20] = RPMI 5 mM glucose + 10% FBS, 5.12 µM
[21] = RPMI 5 mM glucose + 10% FBS, 15.4 µM
[22] = RPMI 5 mM glucose + 10% FBS, 46.1 µM
[23] = RPMI 5 mM glucose + 10% dialyzed FBS, 0.000781 µM
[24] = RPMI 5 mM glucose + 10% dialyzed FBS, 0.00234 µM
[25] = RPMI 5 mM glucose + 10% dialyzed FBS, 0.00702 µM
[26] = RPMI 5 mM glucose + 10% dialyzed FBS, 0.0211 µM
[27] = RPMI 5 mM glucose + 10% dialyzed FBS, 0.0632 µM
[28] = RPMI 5 mM glucose + 10% dialyzed FBS, 0.19 µM
[29] = RPMI 5 mM glucose + 10% dialyzed FBS, 0.569 µM
[30] = RPMI 5 mM glucose + 10% dialyzed FBS, 1.71 µM
[31] = RPMI 5 mM glucose + 10% dialyzed FBS, 5.12 µM
[32] = RPMI 5 mM glucose + 10% dialyzed FBS, 15.4 µM
[33] = RPMI 5 mM glucose + 10% dialyzed FBS, 46.1 µM

SMILES | cell viability [1] [%] | cell viability [2] [%] | cell viability [3] [%] | cell viability [4] [%] | cell viability [5] [%] | cell viability [6] [%] | cell viability [7] [%] | cell viability [8] [%] | cell viability [9] [%] | cell viability [10] [%] | cell viability [11] [%] | cell viability [12] [%] | cell viability [13] [%] | cell viability [14] [%] | cell viability [15] [%] | cell viability [16] [%] | cell viability [17] [%] | cell viability [18] [%] | cell viability [19] [%] | cell viability [20] [%] | cell viability [21] [%] | cell viability [22] [%] | cell viability [23] [%] | cell viability [24] [%] | cell viability [25] [%] | cell viability [26] [%] | cell viability [27] [%] | cell viability [28] [%] | cell viability [29] [%] | cell viability [30] [%] | cell viability [31] [%] | cell viability [32] [%] | cell viability [33] [%]
Cc1c[nH]c(/C=C2\C(=O)Nc3ccccc32)c1CCC(=O)O | 109 | 107 | 111 | 108 | 101 | 111 | 97.2 | 96.5 | 79.2 | 76.5 | 79.8 | 111 | 108 | 115 | 122 | 103 | 118 | 95.2 | 93.1 | 67.2 | 65.8 | 65.7 | 122 | 118 | 123 | 127 | 105 | 106 | 94.7 | 92.4 | 71.7 | 67.3 | 68.7
CN1CCCN(C(=O)c2cccc(-c3ccc(/C=C4/C(=O)Nc5ccc(Cl)cc54)o3)c2)CC1 | 106 | 119 | 114 | 116 | 114 | 120 | 106 | 92.3 | 76.9 | 76.9 | 59.2 | 117 | 108 | 111 | 117 | 115 | 110 | 102 | 85.8 | 54.7 | 20.1 | 3.03 | 103 | 107 | 117 | 114 | 113 | 108 | 111 | 90.7 | 64.3 | 53 | 5.68
COc1cc2nccc(Oc3ccc(NC(=O)Nc4cc(C)on4)c(Cl)c3)c2cc1OC | 121 | 131 | 115 | 122 | 122 | 115 | 126 | 119 | 107 | 113 | 40.5 | 124 | 121 | 114 | 129 | 118 | 124 | 120 | 122 | 110 | 106 | 36.7 | – | – | – | – | – | – | – | – | – | – | –
O=C(Cc1cccc(OC(F)(F)F)c1)Nc1ccc(CCCCc2nnc(NC(=O)Cc3ccccn3)s2)nn1 | 120 | 118 | 126 | 112 | 115 | 107 | 101 | 99.4 | 103 | 91.7 | 95.8 | 121 | 113 | 121 | 115 | 103 | 95.6 | 83 | 83.2 | 71.2 | 77.8 | 76.5 | – | – | – | – | – | – | – | – | – | – | –
NC1CCC(N[C@@H]2C[C@H]2c2ccccc2)CC1 (some centres undefined) | 87.9 | 92.4 | 94.6 | 94.5 | 102 | 102 | 105 | 99.5 | 106 | 94.7 | 98.5 | 92 | 94.6 | 106 | 102 | 102 | 100 | 95 | 76.6 | 100 | 102 | 91.2 | 92.2 | 98.1 | 105 | 99 | 96.5 | 109 | 103 | 97.8 | 98.2 | 88.9 | 84
CO[C@H]1C[C@@H]2CC[C@@H](C)[C@@](O)(O2)C(=O)C(=O)N2CCCC[C@H]2C(=O)O[C@H]([C@H](C)C[C@@H]2CC[C@@H](OP(C)(C)=O)[C@H](OC)C2)CC(=O)[C@H](C)/C=C(\C)[C@@H](O)[C@@H](OC)C(=O)[C@H](C)C[C@H](C)/C=C/C=C/C=C/1C | – | – | – | – | – | – | – | – | – | – | – | 119 | 138 | 121 | 126 | 118 | 97.7 | 122 | 96.3 | 88.4 | 100 | 81.4 | – | – | – | – | – | – | – | – | – | – | –
Nc1ccccc1NC(=O)c1ccc(CNc2nccc(-c3cccnc3)n2)cc1 | 106 | 107 | 108 | 113 | 110 | 120 | 113 | 85.6 | 7.68 | 6.63 | 7 | 101 | 106 | 109 | 110 | 111 | 110 | 114 | 71.1 | 9.5 | 6.39 | 6.22 | 109 | 107 | 113 | 122 | 122 | 117 | 110 | 83 | 8.72 | 7.24 | 6.17
CN1C(=O)\C(=C/C(=C1/NC2=C(F)C=C(I)C=C2)C(=O)NOCCO)C | 94.6 | 99.5 | 103 | 93.4 | 90.4 | 90.1 | 94.5 | 88.9 | 94.5 | 87.7 | 78.1 | 98.2 | 104 | 98.9 | 90.7 | 88.8 | 85.3 | 85.5 | 84.7 | 85.7 | 87.1 | 81.1 | 94.6 | 105 | 96.2 | 99.6 | 92.3 | 90.7 | 95.8 | 90.9 | 101 | 91 | 74.9
CN(C)CCOC(c1ccccc1)c1ccccc1 | 104 | 107 | 105 | 103 | 111 | 111 | 112 | 103 | 109 | 111 | 82.8 | 96.1 | 105 | 99.4 | 112 | 110 | 105 | 105 | 105 | 100 | 110 | 85.5 | 94 | 102 | 104 | 104 | 112 | 104 | 105 | 101 | 111 | 96.8 | 83
O=C(Nc1ccc(OC(F)(F)F)cc1)c1sccc1NCc1ccnc2ccccc12 | 112 | 113 | 108 | 116 | 106 | 112 | 41.4 | 12.8 | 10.7 | 8.54 | 7.05 | 106 | 121 | 118 | 120 | 118 | 113 | 102 | 72.6 | 25.9 | 10.3 | 9.62 | 109 | 119 | 111 | 120 | 108 | 103 | 110 | 73.5 | 33.1 | 16.6 | 16.1
Cc1cc(O)c2c3c4c(cc(O)c13)C(C)(C)C(=O)c1c(O)cc(O)c(c1-4)C2=O | 104 | 108 | 111 | 107 | 111 | 106 | 113 | 107 | 106 | 105 | 39 | 107 | 106 | 109 | 99.8 | 114 | 107 | 115 | 109 | 110 | 97.2 | 42.2 | 103 | 112 | 117 | 109 | 107 | 101 | 111 | 104 | 105 | 93.2 | 35.2
CC[C@H]1OC(=O)[C@H](C)[C@@H](O[C@H]2C[C@@](C)(OC)[C@@H](O)[C@H](C)O2)[C@H](C)[C@@H](O[C@@H]2O[C@@H](C)C[C@H](N(C)C)[C@H]2O)[C@](C)(O)C[C@@H](C)C(=O)[C@H](C)[C@@H](O)[C@]1(C)O | 83.8 | 88.3 | 94.6 | 98.3 | 91.2 | 89.9 | 97.9 | 94.6 | 84 | 57.4 | 18.4 | 84.9 | 87 | 85.6 | 91.3 | 87.6 | 90 | 91.7 | 87.8 | 87.3 | 91.8 | 13.6 | 88.4 | 84.3 | 88.7 | 91.8 | 84.1 | 93.4 | 89.3 | 92.9 | 89.8 | 88.4 | 28
O=C1c2c(O)cccc2[C@H]([C@@H]2O[C@H](CO)[C@@H](O)[C@H](O)[C@H]2O)c2cc(CO)cc(O)c21 | 91 | 95.8 | 95.1 | 107 | 107 | 98.7 | 106 | 99.4 | 103 | 98.4 | 103 | 93.9 | 93.3 | 102 | 109 | 105 | 109 | 108 | 106 | 101 | 106 | 106 | 91 | 96.4 | 90.9 | 96.8 | 106 | 95.2 | 97 | 95.7 | 103 | 99.4 | 99
O=C1Nc2ccccc2/C1=C1\Nc2ccccc2C1=O | 106 | 106 | 109 | 102 | 104 | 101 | 104 | 103 | 94.9 | 104 | 97.9 | 101 | 111 | 103 | 105 | 110 | 108 | 104 | 104 | 95.9 | 99.7 | 98 | 99.3 | 102 | 105 | 91.2 | 104 | 97.1 | 106 | 94.9 | 93.1 | 102 | 83.4
Fc1ccc(C(c2ccc(F)cc2)N2CCN(C/C=C/c3ccccc3)CC2)cc1 | 110 | 121 | 111 | 109 | 109 | 114 | 108 | 108 | 103 | 99.1 | 96.5 | 118 | 112 | 109 | 121 | 116 | 119 | 112 | 107 | 110 | 106 | 104 | 113 | 104 | 121 | 109 | 102 | 110 | 114 | 106 | 104 | 98 | 95.2
O=C(NC1CCOCC1)c1ccc(-c2cc(-c3c[nH]nc3-c3ccccn3)ccn2)cc1 | 104 | 103 | 110 | 104 | 111 | 108 | 109 | 96.6 | 98.3 | 92.4 | 104 | 104 | 109 | 110 | 109 | 109 | 94.1 | 98.4 | 85.7 | 99.9 | 97.8 | 99.9 | 114 | 109 | 103 | 105 | 103 | 102 | 96 | 105 | 88.4 | 97.5 | 89.8
